# From ChEMBL document CHEMBL1201862, “PubChem BioAssay data set” (2004)
# Active and inactive are the calls of the source.
# Experiments:
# [1] = molecular target: Potassium voltage-gated channel subfamily KQT member 2 (Rattus norvegicus, UniProt O88943); experiment: blockers of KCNQ2 channel current – cell-based, automated electrophysiology, set II, rat KCNQ2, dose response (AID 588637); type: functional
# Melanocortin receptor 4 = Melanocortin receptor 4 (Homo sapiens, UniProt P32245); type: functional, cell-based;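 note: Cell-based assay with luminescence read-out, confirmatory dose-response testing for agonist activity of biased ligands at MC4R; human U2OS cells with tagged receptor and beta-arrestin; potency of agonists that increase receptor coupling to beta-arrestin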
# [2] = molecular target: T1, DNA repair protein RAD52 homolog (Homo sapiens, UniProt P43351); type: functional, biochemical
# T1 sequence (P43351 whole entry): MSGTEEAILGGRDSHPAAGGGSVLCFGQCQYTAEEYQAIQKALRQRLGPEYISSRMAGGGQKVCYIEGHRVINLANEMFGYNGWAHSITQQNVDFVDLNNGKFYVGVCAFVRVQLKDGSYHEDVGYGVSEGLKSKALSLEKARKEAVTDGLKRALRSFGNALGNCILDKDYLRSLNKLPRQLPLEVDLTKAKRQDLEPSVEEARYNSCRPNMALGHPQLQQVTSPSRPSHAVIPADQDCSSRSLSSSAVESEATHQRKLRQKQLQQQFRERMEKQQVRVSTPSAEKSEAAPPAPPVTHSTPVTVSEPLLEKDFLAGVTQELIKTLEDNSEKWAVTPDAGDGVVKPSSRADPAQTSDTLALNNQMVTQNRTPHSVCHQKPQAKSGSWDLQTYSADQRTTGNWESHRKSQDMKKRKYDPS
# [3] = molecular target: T2, DNA repair and recombination protein RAD54-like (Homo sapiens, UniProt Q92698); experiment: RAD54 Holliday junction migration blockers – biochemical, fluorescence, cherry-picked samples, dose series, confirmation (AID 651657); type: functional
# T2 sequence (Q92698 whole entry): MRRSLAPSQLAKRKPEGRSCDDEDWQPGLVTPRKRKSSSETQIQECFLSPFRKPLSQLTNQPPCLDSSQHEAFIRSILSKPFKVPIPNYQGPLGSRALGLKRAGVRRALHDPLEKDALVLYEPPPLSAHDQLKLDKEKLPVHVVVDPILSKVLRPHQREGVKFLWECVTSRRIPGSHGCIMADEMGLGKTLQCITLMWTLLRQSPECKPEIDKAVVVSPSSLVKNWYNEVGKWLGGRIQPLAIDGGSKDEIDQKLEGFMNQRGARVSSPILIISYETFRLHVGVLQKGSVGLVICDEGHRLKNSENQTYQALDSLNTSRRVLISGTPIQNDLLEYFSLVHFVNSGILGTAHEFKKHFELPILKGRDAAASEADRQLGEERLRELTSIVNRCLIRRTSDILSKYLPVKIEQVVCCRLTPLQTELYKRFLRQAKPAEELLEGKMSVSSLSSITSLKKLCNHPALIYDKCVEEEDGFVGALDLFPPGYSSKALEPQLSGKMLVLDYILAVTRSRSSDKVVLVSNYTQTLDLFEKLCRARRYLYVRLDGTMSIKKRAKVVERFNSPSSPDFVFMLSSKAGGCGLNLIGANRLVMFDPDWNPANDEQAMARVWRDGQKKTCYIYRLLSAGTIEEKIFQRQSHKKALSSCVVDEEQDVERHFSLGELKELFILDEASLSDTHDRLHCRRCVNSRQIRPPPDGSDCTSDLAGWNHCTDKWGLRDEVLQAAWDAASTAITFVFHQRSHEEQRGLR
# [4] = molecular target: T3, Adenosylmethionine-8-amino-7-oxononanoate aminotransferase (Mycobacterium tuberculosis, UniProt P9WQ81); experiment: Mycobacterium tuberculosis BioA enzyme inhibitor Measured in Biochemical System Using Plate Reader - 2163-02_Inhibitor_Dose_CherryPick_Activity.; type: functional, Mycobacterium tuberculosis UT205
# T3 sequence (P9WQ81 whole entry): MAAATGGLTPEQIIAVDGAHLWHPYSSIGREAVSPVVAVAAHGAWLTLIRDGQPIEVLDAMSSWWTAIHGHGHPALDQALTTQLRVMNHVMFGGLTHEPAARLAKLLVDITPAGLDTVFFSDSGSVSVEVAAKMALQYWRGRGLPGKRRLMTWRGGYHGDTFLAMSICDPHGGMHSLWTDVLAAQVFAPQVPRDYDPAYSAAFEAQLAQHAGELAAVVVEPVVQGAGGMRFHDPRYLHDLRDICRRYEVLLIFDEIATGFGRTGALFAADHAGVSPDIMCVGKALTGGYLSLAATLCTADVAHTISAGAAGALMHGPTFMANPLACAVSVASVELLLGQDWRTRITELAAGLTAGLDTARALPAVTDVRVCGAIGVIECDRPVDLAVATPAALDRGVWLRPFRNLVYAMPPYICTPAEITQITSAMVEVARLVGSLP
# [5] = molecular target: DNA dC->dU-editing enzyme APOBEC-3G (Homo sapiens, UniProt Q9HC16); experiment: Dose Response confirmation of small molecule APOBEC3G DNA Deaminase Inhibitors via a fluorescence-based single-stranded DNA deaminase assay. [Related pubchem assays (depositor defined):AID493012, AID493028]; type: functional
# [6] = molecular target: T4, Heat shock factor protein 1 (Mus musculus, UniProt P38532); experiment: enhancement of HSF1-driven luciferase signal – cell-based, NIH3T3, luminescence, dose retest, confirmation (AID 435004); type: functional;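 note: stress induced by proteasome inhibitor MG132 added 30 min after compound; luciferase reporter driven by HSF1 response element in NIH3T3 cells; actives raise luminescence as potentiators of the MG132 stress response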
# T4 sequence (P38532 whole entry): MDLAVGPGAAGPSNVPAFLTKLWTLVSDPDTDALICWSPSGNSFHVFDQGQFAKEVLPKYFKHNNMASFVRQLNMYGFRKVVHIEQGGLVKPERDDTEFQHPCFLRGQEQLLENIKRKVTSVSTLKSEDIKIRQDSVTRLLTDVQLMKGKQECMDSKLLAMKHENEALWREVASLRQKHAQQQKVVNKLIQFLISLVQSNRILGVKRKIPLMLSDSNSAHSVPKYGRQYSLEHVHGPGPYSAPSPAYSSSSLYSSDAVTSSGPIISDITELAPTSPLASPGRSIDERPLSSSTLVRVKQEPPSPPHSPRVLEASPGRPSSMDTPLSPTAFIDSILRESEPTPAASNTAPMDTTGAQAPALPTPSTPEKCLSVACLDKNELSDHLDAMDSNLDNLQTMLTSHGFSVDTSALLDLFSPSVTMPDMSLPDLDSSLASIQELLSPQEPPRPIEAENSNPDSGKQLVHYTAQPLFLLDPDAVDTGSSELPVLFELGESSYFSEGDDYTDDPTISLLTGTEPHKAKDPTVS
# Large T antigen = Large T antigen (Simian virus 40, UniProt P03070); type: functional, Betapolyomavirus macacae;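 note: Confirmatory-stage PubChem screen for compounds that inhibit SV40 T antigen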
# [7] = molecular target: Voltage-dependent T-type calcium channel subunit alpha-1H (Homo sapiens, UniProt O95180); type: functional;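 note: channel activity triggered by adding a high calcium stimulation buffer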
# INS1 = experiment: INS-1E survival protection against cytokine death – cell-based, luminescence, retest, dose response (AID 449756); type: functional; details: Rattus norvegicus;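 note: cell death triggered by IL-1 beta plus TNF-alpha plus IFN-gamma mixture; protective hits raise ATP signal compared with cytokine alone wells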
# [8] = blockade of melanocortin 4 receptor signaling – cell-based, plate reader, cherry pick, counter-screen for LGR2 antagonist project, dose response (AID 743444); type: functional;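 note: transfected HEK 293 cells stimulated with alpha-MSH peptide; potency of inhibitors of the alpha-MSH evoked signal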
# [9] = Luminescence Cell-Based Dose Retest to Confirm Inhibitors of Cancer Stem Cells. [Related pubchem assays (depositor defined):AID2717, AID2721]; type: functional; details: Homo sapiens
# [10] = blockers of bursicon-stimulated LGR2 cAMP reporter – cell-based, HEK293, CRE-luciferase reporter, cherry pick, set 2, dose response (AID 743343); type: functional;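 note: transfected cells were stimulated with diluted bursicon conditioned medium after compound addition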
# [11] = A549 cell cytotoxicity, dose response, cytotoxicity control, plate reader, cherry-pick, antagonist series (AID 743412); type: functional, cell-based
# [12] = viability loss in HEK293 cells – cell-based, plate reader, cherry-picked samples, cytotoxicity control, dose response (AID 743446); type: functional
# [13] = toxicity toward HepG2 liver cells – cell-based, plate reader, cherry-pick, antagonist series, cytotoxicity control, dose response (AID 743416); type: functional
# [14] = molecular target: T5, Low molecular weight phosphotyrosine protein phosphatase (Homo sapiens, UniProt P24666); type: functional; details: read-out: IC50_Mean;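 note: Dose-response confirmation assay measuring inhibition of LMPTP enzyme activity by fluorescence intensity read-out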
# T5 sequence (P24666 whole entry): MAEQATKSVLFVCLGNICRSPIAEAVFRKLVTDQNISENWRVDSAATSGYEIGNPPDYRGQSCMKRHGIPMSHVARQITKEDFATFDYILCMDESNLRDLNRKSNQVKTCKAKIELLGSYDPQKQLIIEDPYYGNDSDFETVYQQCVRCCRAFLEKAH
# Sequence of Potassium voltage-gated channel subfamily KQT member 2 (O88943 whole entry): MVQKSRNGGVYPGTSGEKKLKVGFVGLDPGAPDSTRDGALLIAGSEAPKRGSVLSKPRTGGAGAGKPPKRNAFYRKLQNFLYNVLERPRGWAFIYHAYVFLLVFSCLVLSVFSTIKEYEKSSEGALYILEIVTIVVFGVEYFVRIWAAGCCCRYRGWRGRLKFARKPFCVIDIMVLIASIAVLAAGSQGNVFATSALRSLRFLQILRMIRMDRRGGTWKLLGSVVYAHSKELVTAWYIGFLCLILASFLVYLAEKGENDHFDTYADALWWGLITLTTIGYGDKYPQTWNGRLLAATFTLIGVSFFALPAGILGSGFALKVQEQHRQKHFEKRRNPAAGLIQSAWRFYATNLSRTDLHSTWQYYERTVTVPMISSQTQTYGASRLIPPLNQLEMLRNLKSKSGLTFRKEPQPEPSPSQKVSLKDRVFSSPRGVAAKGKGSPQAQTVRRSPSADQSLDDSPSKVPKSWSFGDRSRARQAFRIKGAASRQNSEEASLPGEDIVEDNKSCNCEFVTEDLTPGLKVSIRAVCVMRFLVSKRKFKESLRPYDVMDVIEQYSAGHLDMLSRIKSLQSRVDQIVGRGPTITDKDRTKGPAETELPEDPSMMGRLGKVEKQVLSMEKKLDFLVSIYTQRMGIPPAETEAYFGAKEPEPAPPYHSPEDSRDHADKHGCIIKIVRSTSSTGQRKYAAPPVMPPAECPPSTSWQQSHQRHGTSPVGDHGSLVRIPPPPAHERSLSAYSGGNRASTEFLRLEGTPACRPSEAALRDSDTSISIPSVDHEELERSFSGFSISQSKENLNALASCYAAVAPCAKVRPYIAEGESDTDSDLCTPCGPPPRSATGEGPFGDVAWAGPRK
# Sequence of Melanocortin receptor 4 (P32245 whole entry): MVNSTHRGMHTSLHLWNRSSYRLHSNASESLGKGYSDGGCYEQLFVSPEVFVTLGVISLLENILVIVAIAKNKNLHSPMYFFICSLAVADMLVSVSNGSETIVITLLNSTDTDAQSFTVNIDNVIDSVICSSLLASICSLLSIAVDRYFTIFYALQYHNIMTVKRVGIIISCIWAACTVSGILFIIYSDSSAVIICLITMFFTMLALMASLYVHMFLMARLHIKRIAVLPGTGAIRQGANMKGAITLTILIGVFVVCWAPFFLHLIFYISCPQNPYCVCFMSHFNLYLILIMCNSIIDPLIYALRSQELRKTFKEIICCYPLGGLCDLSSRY
# Sequence of DNA dC->dU-editing enzyme APOBEC-3G (Q9HC16 whole entry): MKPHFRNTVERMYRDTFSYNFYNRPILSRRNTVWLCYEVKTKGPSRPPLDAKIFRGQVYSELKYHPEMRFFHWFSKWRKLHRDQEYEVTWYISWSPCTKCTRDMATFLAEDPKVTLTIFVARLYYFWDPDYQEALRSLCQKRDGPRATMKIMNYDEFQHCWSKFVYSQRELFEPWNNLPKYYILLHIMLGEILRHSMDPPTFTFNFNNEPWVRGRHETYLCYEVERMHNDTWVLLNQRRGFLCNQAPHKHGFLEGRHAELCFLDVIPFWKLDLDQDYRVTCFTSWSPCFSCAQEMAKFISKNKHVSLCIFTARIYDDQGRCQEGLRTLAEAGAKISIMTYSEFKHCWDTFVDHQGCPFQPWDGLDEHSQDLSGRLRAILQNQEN
# Sequence of Voltage-dependent T-type calcium channel subunit alpha-1H (O95180 whole entry): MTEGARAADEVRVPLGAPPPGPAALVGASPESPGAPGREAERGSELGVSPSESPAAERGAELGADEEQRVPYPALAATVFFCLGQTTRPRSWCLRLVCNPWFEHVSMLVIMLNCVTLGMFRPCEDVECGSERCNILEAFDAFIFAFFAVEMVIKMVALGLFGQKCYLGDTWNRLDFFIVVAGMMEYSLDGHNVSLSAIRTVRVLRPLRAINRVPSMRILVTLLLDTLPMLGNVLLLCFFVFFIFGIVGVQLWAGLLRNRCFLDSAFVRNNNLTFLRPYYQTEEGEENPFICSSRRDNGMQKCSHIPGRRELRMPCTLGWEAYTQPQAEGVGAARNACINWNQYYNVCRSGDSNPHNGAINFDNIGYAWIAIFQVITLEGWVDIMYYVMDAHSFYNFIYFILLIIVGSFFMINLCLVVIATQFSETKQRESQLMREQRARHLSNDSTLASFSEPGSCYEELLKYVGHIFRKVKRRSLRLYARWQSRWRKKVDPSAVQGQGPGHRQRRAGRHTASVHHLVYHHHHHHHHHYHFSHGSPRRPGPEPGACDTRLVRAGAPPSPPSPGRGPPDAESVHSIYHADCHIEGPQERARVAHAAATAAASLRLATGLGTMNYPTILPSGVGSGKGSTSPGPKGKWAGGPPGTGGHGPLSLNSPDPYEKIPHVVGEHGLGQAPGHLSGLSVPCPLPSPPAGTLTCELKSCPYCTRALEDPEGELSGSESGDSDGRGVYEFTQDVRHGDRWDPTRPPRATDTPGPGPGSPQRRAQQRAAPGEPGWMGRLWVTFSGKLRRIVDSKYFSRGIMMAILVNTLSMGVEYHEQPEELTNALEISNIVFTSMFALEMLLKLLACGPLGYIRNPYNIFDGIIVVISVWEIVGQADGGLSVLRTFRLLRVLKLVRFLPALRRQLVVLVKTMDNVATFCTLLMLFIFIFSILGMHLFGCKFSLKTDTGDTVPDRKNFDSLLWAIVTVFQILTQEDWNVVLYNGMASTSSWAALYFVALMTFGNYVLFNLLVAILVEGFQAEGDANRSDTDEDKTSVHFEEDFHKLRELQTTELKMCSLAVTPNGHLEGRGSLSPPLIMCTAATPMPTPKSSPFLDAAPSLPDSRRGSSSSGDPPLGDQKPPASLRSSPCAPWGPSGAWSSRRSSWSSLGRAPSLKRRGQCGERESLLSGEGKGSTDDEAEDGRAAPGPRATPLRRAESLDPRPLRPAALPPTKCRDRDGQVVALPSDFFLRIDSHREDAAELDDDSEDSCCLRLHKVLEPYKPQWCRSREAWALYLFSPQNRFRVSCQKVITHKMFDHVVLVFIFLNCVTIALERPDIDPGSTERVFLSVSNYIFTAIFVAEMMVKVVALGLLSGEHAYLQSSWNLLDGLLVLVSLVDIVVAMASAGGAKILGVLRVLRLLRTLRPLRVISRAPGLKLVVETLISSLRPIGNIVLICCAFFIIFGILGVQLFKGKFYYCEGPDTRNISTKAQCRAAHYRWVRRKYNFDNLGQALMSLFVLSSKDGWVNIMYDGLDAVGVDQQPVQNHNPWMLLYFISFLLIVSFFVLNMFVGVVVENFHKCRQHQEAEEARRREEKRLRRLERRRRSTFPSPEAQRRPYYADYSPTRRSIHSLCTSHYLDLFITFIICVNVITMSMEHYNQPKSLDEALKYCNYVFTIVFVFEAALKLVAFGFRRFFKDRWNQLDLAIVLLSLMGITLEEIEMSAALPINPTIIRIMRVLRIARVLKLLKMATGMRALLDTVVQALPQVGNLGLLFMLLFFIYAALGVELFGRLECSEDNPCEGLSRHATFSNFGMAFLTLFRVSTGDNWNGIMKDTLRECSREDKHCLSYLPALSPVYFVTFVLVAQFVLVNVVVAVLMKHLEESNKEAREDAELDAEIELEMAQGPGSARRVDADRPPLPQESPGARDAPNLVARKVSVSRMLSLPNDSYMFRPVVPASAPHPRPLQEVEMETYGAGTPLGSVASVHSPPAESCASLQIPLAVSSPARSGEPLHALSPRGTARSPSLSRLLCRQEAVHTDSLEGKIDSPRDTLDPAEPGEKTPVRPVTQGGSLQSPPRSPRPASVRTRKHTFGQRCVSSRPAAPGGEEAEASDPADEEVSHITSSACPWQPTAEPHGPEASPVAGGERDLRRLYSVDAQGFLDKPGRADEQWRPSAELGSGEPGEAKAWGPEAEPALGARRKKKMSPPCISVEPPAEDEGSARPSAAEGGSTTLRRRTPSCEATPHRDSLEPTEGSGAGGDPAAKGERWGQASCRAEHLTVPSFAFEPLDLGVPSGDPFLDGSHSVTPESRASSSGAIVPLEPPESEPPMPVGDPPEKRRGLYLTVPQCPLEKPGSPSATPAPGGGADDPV
# Sequence of Large T antigen (P03070 whole entry): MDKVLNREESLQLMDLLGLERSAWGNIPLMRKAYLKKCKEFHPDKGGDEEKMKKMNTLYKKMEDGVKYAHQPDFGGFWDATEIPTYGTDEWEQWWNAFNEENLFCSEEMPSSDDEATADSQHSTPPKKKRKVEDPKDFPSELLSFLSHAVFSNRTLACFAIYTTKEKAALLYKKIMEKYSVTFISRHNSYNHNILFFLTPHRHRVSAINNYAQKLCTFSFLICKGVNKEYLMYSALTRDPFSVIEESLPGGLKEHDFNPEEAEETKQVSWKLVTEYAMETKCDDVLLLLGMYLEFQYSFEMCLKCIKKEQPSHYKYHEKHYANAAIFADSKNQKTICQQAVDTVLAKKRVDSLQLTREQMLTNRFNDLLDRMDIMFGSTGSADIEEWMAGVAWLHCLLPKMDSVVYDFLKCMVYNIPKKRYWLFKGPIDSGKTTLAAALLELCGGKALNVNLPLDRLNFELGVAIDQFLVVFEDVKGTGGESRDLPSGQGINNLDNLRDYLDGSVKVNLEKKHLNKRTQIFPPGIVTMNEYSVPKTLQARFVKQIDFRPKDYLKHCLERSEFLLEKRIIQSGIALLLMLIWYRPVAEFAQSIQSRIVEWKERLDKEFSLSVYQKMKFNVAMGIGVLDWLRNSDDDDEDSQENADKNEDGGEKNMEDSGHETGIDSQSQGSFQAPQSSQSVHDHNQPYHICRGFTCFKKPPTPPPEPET
compound,measurement,setting,value
Cn1c(C(=O)N2CCc3ccccc3C2)cc2oc3ccccc3c21,IC50,[1],6.99 µM (active)
N#C/C(=C\c1cn(CCOc2ccccc2)c2ccccc12)C(=O)NCc1ccco1,EC50,Melanocortin receptor 4,> 89.2 µM (inactive)
COc1ccc(Cc2c(-c3ccc(OC)c(OC)c3)nc3c(C)cc(Br)cn23)c(C)c1,AC50,[2],15.5 µM (active)
same,AC50,[3],14.8 µM (active)
same,AC50,[4],6.62 µM (active)
CSS(=O)(=O)c1cccc2cccnc12,IC50,[5],9.66 µM (active)
same,EC50,[6],19.1 µM (active)
same,IC50,Large T antigen,65.2 µM (active)
Cc1cccc(-c2nc(CN3CCCC(C(=O)NC4CCCCCC4)C3)c(C)o2)c1 (centres undefined),IC50,[1],7.19 µM (active)
same,EC50,[7],5.56 µM (active)
O=C(Nc1ccc(Cl)cc1)Nc1nnc(-c2ccncc2)s1,AC50,INS1,3.54 µM (active)
same,AC50,[8],1.74 µM (active)
same,AC50,[9],1.17 µM (active)
same,AC50,[10],3.51 µM (active)
same,AC50,[11],15.5 µM (active)
same,AC50,[12],2.98 µM (active)
same,AC50,[13],5.88 µM (active)
same,IC50,[14],30.6 µM (inactive)
CC(=O)c1ccc(C(=O)N2CCCC(Nc3ccccc3)C2)s1 (centres undefined),AC50,[4],5.18 µM (active)
